These results are taken from PMC8557901 (Microbiology Spectrum, 2021).

Bounds are passed on as bounds.

A short description of data set [1]: MTT cell viability assay, murine primary hepatocytes. In kind it is cell-based, BALB/c mice. To be noted: BALB/c, mouse. The text has this: (§1) Primary human hepatocytes were isolated from liver segments obtained from adult patients undergoing partial hepatectomy (Service de Chirurgie Digestive, Hépato-Bilio Pancréatique, Hôpital Pitié Salpêtrière, Paris, France). Primary simian hepatocytes were isolated from liver segments collected from healthy Macaca fascicularis monkeys from CEA, Fontenay aux Roses, France. All hepatocytes were obtained using collagenase perfusion as previously described ([40]). Simian hepatocytes were immediately cryopreserved with a Nicool-Freezal controlled rate freezer (Air Liquide Santé, Marne la Vallée, France) and then used when needed after fast thawing at 37°C. Primary murine hepatocytes were isolated from liver segments collected from BALB/c mice. Human and murine hepatocytes were used directly after their isolation. Cells were seeded in 96-well plates (Falcon; Becton Dickinson Labware Europe, France) coated with collagen I (BD Bioscience, USA) at a density of 80,000 cells per well. […]
(§2) The toxicity of M1 toward primary hepatocytes and HepG2-CD81 cells was evaluated through the MTT {[3-(4,5-dimethyl-2-thiazolyl)-2,5-diphenyl-2H-tetrazolium bromide]} test ([42]). […] Then, MTT was replaced by a mixture of DMSO-ethanol (1:1) to dissolve formazan crystals and the absorbance was read at 540 nm on a FlexStation plate reader.
In general terms: Formazan colour is commonly taken as a measure of viable cells.

Data set [2] has as its system P. falciparum liver-stage parasites in human primary hepatocytes. Put plainly: In vitro liver-stage development, P. falciparum in human primary hepatocytes. Type of data set: cell-based, Plasmodium falciparum. The text has this:
Primary human hepatocytes were isolated from liver segments obtained from adult patients undergoing partial hepatectomy (Service de Chirurgie Digestive, Hépato-Bilio Pancréatique, Hôpital Pitié Salpêtrière, Paris, France). Primary simian hepatocytes were isolated from liver segments collected from healthy Macaca fascicularis monkeys from CEA, Fontenay aux Roses, France. All hepatocytes were obtained using collagenase perfusion as previously described ([40]). […] Primary murine hepatocytes were isolated from liver segments collected from BALB/c mice. Human and murine hepatocytes were used directly after their isolation. Cells were seeded in 96-well plates (Falcon; Becton Dickinson Labware Europe, France) coated with collagen I (BD Bioscience, USA) at a density of 80,000 cells per well. […] For human hepatocytes, the complete medium was supplemented with 2% dimethyl sulfoxide (DMSO; Sigma-Aldrich, USA) before infection to preserve their differentiation.
On the day of infection, 3 · 10^4 sporozoites of P. falciparum, P. yoelii, and P. cynomolgi were added to their respective host cell cultures (human, murine, and simian). The infected culture plates were centrifuged for 10 min at 900 × g, allowing fast parasite sedimentation, and further incubated with serial dilutions of M1. Culture medium containing the appropriate drug concentration was refreshed daily, and cells were fixed at 48 h postinfection (p.i.) for infections with P. yoelii, 6 days p.i. for P. falciparum, or 8 days p.i. for P. cynomolgi. For the in vitro sporozoite invasion experiments, P. falciparum sporozoites were preincubated with 1, 10, and 100 μM M1 for 1 h at room temperature before hepatocyte infections. Three hours later, after sporozoite penetration into hepatocytes, cultures were washed and then further incubated with or without the presence of the drug during 6 days. DMSO was used as a negative control.
The number, size, and shape of the parasites were determined using a CellInsight high-content screening platform equipped with Studio HCS software (ThermoFisher Scientific). […] Host cell and parasite nuclei were labeled with DAPI (4′,6-diamidino-2-phenylindole). […] The custom script used for counting and measuring parasites first required identification of the objects based on a fluorescence intensity threshold. The object identity was then further validated based on size and morphological (shape) criteria. The presence of DAPI-associated fluorescence in the selected objects allowed their final selection and the rejection of false positives. […] The parasitic size reduction was calculated on the average object area using the total surface area of each selected object (μm^2).

A short description of data set [3]: MTT cell viability assay, human primary hepatocytes. Type of data set: cell-based.
Description: as §1, §2

Data set [4] concerns P. yoelii in HepG2-CD81 cells. On the set-up: method as in PMID 25791675. To be noted: liver stage of Plasmodium yoelii infecting HepG2-CD81 cells; cited from earlier work.

The CC50 is the concentration giving 50% cytotoxicity. The EC50 is the concentration giving half of the maximal effect. As for `Cc1ccc(-c2cc3nc(NC(C)(C)C)[nH]c(=O)c3s2)cc1` [Metabolite M1, 2-(tert-Butylamino)-6-(p-tolyl)thieno[3,2-d]pyrimidin-4(3H)-one], the CC50 at 2 days in data set [1] was > 60000 nM. In addition, the “concentration from which liver-stage development was fully inhibited” value in data set [2] (P. falciparum in human hepatocytes) turned out to be 14 µM. For the same compound, the EC50 is 450 ± 150 nM in data set [2] (Plasmodium falciparum, Hepatocyte, P. falciparum in human primary hepatocytes (HH), mean ± SEM of triplicate experiments, read-out: EC50 against liver-stage parasites) and 35 nM in data set [4]. Besides, the “SI (selectivity index)” value in data set [2] (hepatocyte CC50/EC50, P. falciparum (HH)) is reported as >133. In addition, the “Size reduction at 10 μM (%)” value in data set [2] (parasite (schizont) size, 10 μM, P. falciparum (HH)) is given as 80%. Further, the CC50 at 5 days in data set [3] was > 60000 nM.
